Source: patent publication US7250394B2, “Treatment of glial tumors with glutamate antagonists” (priority 2001, dated 2007)

Legend:
[1] = tested on: TUNEL^+ neurons surrounding C6Glu^+ cell tumors; experiment: TUNEL staining of degenerating neurons surrounding C6Glu+ tumors; format: in vivo, rat; settings: five-day-old tumors; P<0.001 one-way ANOVA
From the text: Polyclonal antibodies against glutamate transporters were supplied by and used as described by Rothstein et al., “Localization of Neuronal and Glial Glutamate Transporters,” Neuron, 13:713–725 (1994), which is hereby incorporated in its entirety. Neuronal death was visualized with the TUNEL technique (Oncor, Gaithersburg), and counterstained with hematoxilin and eosin (H&E) (Lin et al., “Ga-Junction-Mediated Propagation and Amplification of Cell Injury,” Nature Neurosci., 1, 494–500 (1998), which is hereby incorporated in its entirety). […] TUNEL^+ neurons within a distance of 200 μm from the tumor border were counted by a blinded observer. […]
To test the possibility that elevation of extracellular glutamate triggers excitotoxic neuronal death in normal brain tissue invaded by C6Glu^+ tumor cells, TUNEL (terminal deoxynucleotidyl-transferase-mediated dUTP-blotin nick end-labeling) staining was used to identify degenerating neurons (Lin et al., “Ga-Junction-Mediated Propagation and Amplification of Cell Injury,” Nature Neurosci., 1, 494–500 (1998), which is hereby incorporated in its entirety). Five-day-old tumors were evaluated to minimize indirect injury resulting from the very large tumors in animals with C6Glu^+ cell implants. […]

[2] = tested on: C6Glu^+ cell implants; experiment: C6Glu+ glioma implantation in striata of Wistar rats, tumor size 10 days after implantation; format: in vivo, rat
Protocol: Rats (male Wistar, 250–270 g) anesthetized with pentobarbital (50 mg/kg) were placed in a stereotactic frame and 1×10^4 C6 cells were injected at a depth of 6 mm in the right striata with a Hamilton syringe. Injection coordinates with regard to bregma were 0.5 mm posterior and 3.0 mm lateral. Fischer rats (170–200 g) were injected with 1×10^4 RG2 cells. In some experiments, the glioma cells were prelabeled with the cell tracker, CMFDA (2 μM, Molecular Probes, Eugene, Oreg.) (Lin et al., “Ga-Junction-Mediated Propagation and Amplification of Cell Injury,” Nature Neurosci., 1:494–500 (1998), which is hereby incorporated in its entirety). Ten days after implantation, the anesthetized rats were perfused with 4% paraformaldehyde in phosphate buffer. After post-fixation for 24 hours, the brains were sectioned into 50–500-μm slices by a vibratome (Kang et al., “AstrocyteMediated Potentiation of Inhibitory Synaptic Transmission,” Nature Neurosci., 1:682–692 (1998), which is hereby incorporated in its entirety). The slices were imaged using a Sony digital camera (DSC-S50) and tumor volume calculated using NIH Image software.
Based upon the above observations, it was investigated whether excitotoxic neuronal death accelerates tumor expansion. […]

[3] = tested on: C6 cells; experiment: Proliferation of C6 glioma cells in culture; format: cell-based, rat
Protocol: (§1) Ten-day-old cortical neurons were loaded with the calcium indicator, fluo-3 AM (5 μM, 1 h), and the fluorescence signal was detected by confocal microscopy (MRC1000, BioRad, Richmond, Calif.) as described (Lin et al., “Ga-Junction-Mediated Propagation and Amplification of Cell Injury,” Nature Neurosci., 1:494–500 (1998); Zhang et al., “Tamoxifen-Induced Enhancement of Calcium Signaling in Glioma and MCF-7 Breast Cancer Cells,” Cancer Res., 60:5395–5400 (2000), which are hereby incorporated in their entirety). 100 μl conditioned medium from the C6 clones was added to the culture (initial media volume was 300 μl). Proliferation of the C6 subclones was determined by cell counting or by the Alamar blue assay (Biosource, Camarillo, Calif.) and cellular invasiveness evaluated using Matrigel-coated transwell inserts as described (Zhang et al., “Direct Gap Junction Communication Between Malignant Glioma Cells and Astrocytes,” Cancer Res., 59:1994–2003 (1999), which is hereby incorporated in its entirety).

[4] = tested on: cultured cortical neurons; experiment: Calcium measurement (fluo-3) in cortical neurons after conditioned medium from C6Glu+ cells; format: cell-based, rat; settings: 10 μM
Protocol: as §1
After transfer of conditioned medium from C6Glu^+ cells to cultured cortical neurons that had been first loaded with the calcium indicator fluo-3, there was a rapid increase in the relative emission of fluo-3, indicating increased cytosolic calcium levels (FIG. 1B). […]

[5] = tested on: cortical neurons; experiment: Coculture of cortical neurons with C6Glu+ glioma aggregates, neuronal viability; format: cell-based, rat; settings: pretreatment; 24 h coculture (10 μM per FIG. 1C)
Protocol: Glioma cell aggregates were produced by plating 100,000 C6Glu^+ or C6Glu^−cells in plates with non-adhesive substrate (ultra low cluster 3473; Costar, Cambridge, Mass.). Twenty-four hours later, the glioma aggregates were loaded with calcein AM (green, 2 μM, excitation 488 nm) and transferred to neuronal cultures. Cortical neuronal cultures were preloaded with the cell tracker Sytox 62 (white, 0.1 μM, excitation 647 nm).
To study the direct cellular interactions, the glioma clones were cocultured with cortical neurons (Id.). Twenty-four hours after adding aggregates of C6Glu^− cells to established neuronal cultures, 86±2% of the neurons remained viable (FIGS. 1C–D). In comparison, only 14±1% of neurons survived in sister cultures after addition of C6Glu^+ cell aggregates (FIGS. 1C–D).

[6] = tested on: C6 cells; experiment: Glutamate release from C6 subclones (bioluminescence assay); format: cell-based, rat
Protocol: Confluent cultures were washed twice and incubated in fresh culture medium. Samples of the supernatant were collected at 1, 3 and 6 hours. […] Glutamate release from freshly prepared brain slices was imaged by preparing 300-μm slices by vibratome 5 days after tumor implantation. The sections were prepared in artificial CSF as described (Kang et al., “Astrocyte-Mediated Potentiation of Inhibitory Synaptic Transmission,”Nature Neurosci., 1:683–692 (1998), which is hereby incorporated in its entirety). After 15 to 30 min. incubation in CSF, the slices were transferred to microscope stage and immersed in the bioluminescence mixture (1 ml) at room temperature. To modify the bioluminescence mixture to be tolerated by live tissue, glycerol was removed using Hank's buffered salt solution as the base. The luminescence was imaged by an intensified CCD camera (Hamamatsu, C2400) attached to a BX-50 microscope with a 50 mm camera lens (Olympus). The relative light production over the tumor versus normal brain tissue was quantified. Light emission higher than a background threshold was superimposed upon a bright-field image of the same section obtained immediately after luminescence recordings. The brain slices were fixed overnight in 4% paraformaldehyde and stained with cresylviolet.

[7] = tested on: C6 glioma cells; experiment: [3H]glutamate uptake in C6 subclones; format: cell-based, rat; settings: 5 min
Protocol: Glutamate uptake was analyzed by mixing 0.4 μCi/ml L-[^3H]glutamate (specific activity 0.03 Ci/mmol) with 150 μM glutamate in a buffer containing […] NaCl, 1.5 mM K2HPO4, 2 MM MgCl2, 2 mM CaCl2, 10 mM HEPES and 10 mM glucose with pH 7.3 (ref 6). NaCl was replaced by choline chloride for sodium-free conditions. Cells were washed twice, then incubated in the uptake solution with various blockers for 5 min., followed by 3 washes with ice-cold buffer, and then dissolved in 0.3 N NaOH. The activity of [^3H]glutamate was detected with liquid scintillation counter (1209 Rackbeta, LKB Wallac, San Francisco, Calif.). Protein concentration was determined by using the DC protein assay kit from BioRad.

[8] = patients with Parkinson's Disease, dementia, and spasticity; cited from earlier work
[9] = tested on: RG2 glioma cells; experiment: Proliferation of RG2 glioma cells in culture; format: cell-based, rat
[10] = tested on: RG2Glu^+ cell implants; experiment: RG2Glu+ glioma implantation in Fischer rats, tumor volume; format: in vivo, rat; settings: 25 mg/kg twice daily i.p., 10 d
Protocol: Rats (male Wistar, 250–270 g) anesthetized with pentobarbital (50 mg/kg) were placed in a stereotactic frame and 1×10^4 C6 cells were injected at a depth of 6 mm in the right striata with a Hamilton syringe. Injection coordinates with regard to bregma were 0.5 mm posterior and 3.0 mm lateral. Fischer rats (170–200 g) were injected with 1×10^4 RG2 cells. In some experiments, the glioma cells were prelabeled with the cell tracker, CMFDA (2 μM, Molecular Probes, Eugene, Oreg.) (Lin et al., “Ga-Junction-Mediated Propagation and Amplification of Cell Injury,” Nature Neurosci., 1:494–500 (1998), which is hereby incorporated in its entirety). Ten days after implantation, the anesthetized rats were perfused with 4% paraformaldehyde in phosphate buffer. After post-fixation for 24 hours, the brains were sectioned into 50–500-μm slices by a vibratome (Kang et al., “AstrocyteMediated Potentiation of Inhibitory Synaptic Transmission,” Nature Neurosci., 1:682–692 (1998), which is hereby incorporated in its entirety). The slices were imaged using a Sony digital camera (DSC-S50) and tumor volume calculated using NIH Image software. […]

[11] = 25 mg/kg i.p.; microdialysis; cited from earlier work

## C[C@]12N[C@H](Cc3ccccc31)c1ccccc12 [MK801, dizocilpine]
[1]
  number of TUNEL+ neurons surrounding C6Glu+ cell tumors: reduced
[2]; 1 mg/kg twice daily i.p., 10 days after injection of C6Glu+ cells, vehicle 106±19 mm^3, P<0.001
  tumor size: 54.9±11 mm^3
[3]; 10 or 100 μM per FIG. 4B
  proliferation rate of C6 cells in vitro: did not reduce
[4]
  increase in fluo-3 emission (cytosolic calcium) in cortical neurons: blocked
[5]
  neuronal loss in coculture with C6Glu+ cell aggregates: attenuated the neuronal loss

## O=C(O)[C@@H]1CN[C@@H](C(=O)O)C1 (relative stereo) [trans-PDC, trans-pyrrolidine-2,4-dicarboxylate]
[6]; 6-h period
  glutamate release from C6 cells: not affected
[7]; 200 μM
  uptake of [3H]glutamate in C6Glu+ cells: not affected
[7]
  [3H]glutamate uptake in C6Glu- cells: significantly reduced
  [3H]glutamate uptake in C6WT cells: significantly reduced

## N[C@H](C(=O)O)c1ccc(C(=O)O)cc1 [S-4CPG, (s)-4-carboxyphenylglycine]
[6]; 100 μM, any of the three clones
  glutamate release from C6 cells: no effect

## N[C@@H](CSSC[C@H](N)C(=O)O)C(=O)O [cystine]
[6]; addition of extracellular cystine, any of the three clones
  glutamate release from C6 cells: no effect

## CC12CC3CC(C)(C1)CC(N)(C3)C2 [memantine]
[2]; 10 d after implantation, P<0.001 (FIG. 6D)
  growth of C6Glu+ tumors: effectively restricted the growth
[3]; 100 μM or higher
  proliferation of cultured C6Glu+ cells: significant reduction
[3]; low concentrations
  proliferation of cultured C6Glu+ cells: did not reduce
[8]
  side effects on prolonged administration: few side effects
[9]; 100 μM or higher
  proliferation of RG2 glioma cells: significant reduction
[9]; low concentrations
  proliferation of RG2 glioma cells: did not reduce
[10]
  tumor volume smaller than vehicle-treated rats: 26%
[11]
  peak concentrations in the central nervous system: 1 to 2 µM
